The results in this text go back to patent US20140005163A1 (NOVARTIS AG, priority 2010, published 2014).

In one series the target is T1, mTOR (Homo sapiens, UniProt P42345).
T1 construct: purchased Invitrogen Corporation (Carlsbad/CA, USA) PV4753
The series can be described thus: Biochemical assay for m-TOR by TR-FRET. The conditions noted are these: 8 μM ATP, 400 nM GFP-4EBP1, 0.5 nM mTOR. An outline of the steps:
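TR-FRET read-out: Tb-labelled anti-p4EBP1 pThr46 antibody (0.5 nM), added in EDTA to stop the reaction, detects phosphorylated GFP-4EBP1 after 15 min. Kinase step used 0.5 nM mTOR, 400 nM substrate, 8 μM ATP, MnCl2-containing HEPES buffer pH 7.5, room temperature.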
On the technique in general: Time-resolved FRET reads energy transfer from a long-lived donor to a nearby acceptor.

The nature of another series: Solubility at pH 6.8. It counts as physicochemical. The conditions noted are these: pH 6.8, aqueous buffer, thermodynamic from solid; read-out: solubility. An outline of the steps: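 Following the procedure of Zhou et al. (2007), compound solubility was determined at pH 6.8.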

The structures appear in SMILES notation. Values after ≈ are worked out from the molar mass of the structure shown. Where only a bound is given, the exact number is not on record here.

T1 sequence (P42345 1360-2549 limits assumed): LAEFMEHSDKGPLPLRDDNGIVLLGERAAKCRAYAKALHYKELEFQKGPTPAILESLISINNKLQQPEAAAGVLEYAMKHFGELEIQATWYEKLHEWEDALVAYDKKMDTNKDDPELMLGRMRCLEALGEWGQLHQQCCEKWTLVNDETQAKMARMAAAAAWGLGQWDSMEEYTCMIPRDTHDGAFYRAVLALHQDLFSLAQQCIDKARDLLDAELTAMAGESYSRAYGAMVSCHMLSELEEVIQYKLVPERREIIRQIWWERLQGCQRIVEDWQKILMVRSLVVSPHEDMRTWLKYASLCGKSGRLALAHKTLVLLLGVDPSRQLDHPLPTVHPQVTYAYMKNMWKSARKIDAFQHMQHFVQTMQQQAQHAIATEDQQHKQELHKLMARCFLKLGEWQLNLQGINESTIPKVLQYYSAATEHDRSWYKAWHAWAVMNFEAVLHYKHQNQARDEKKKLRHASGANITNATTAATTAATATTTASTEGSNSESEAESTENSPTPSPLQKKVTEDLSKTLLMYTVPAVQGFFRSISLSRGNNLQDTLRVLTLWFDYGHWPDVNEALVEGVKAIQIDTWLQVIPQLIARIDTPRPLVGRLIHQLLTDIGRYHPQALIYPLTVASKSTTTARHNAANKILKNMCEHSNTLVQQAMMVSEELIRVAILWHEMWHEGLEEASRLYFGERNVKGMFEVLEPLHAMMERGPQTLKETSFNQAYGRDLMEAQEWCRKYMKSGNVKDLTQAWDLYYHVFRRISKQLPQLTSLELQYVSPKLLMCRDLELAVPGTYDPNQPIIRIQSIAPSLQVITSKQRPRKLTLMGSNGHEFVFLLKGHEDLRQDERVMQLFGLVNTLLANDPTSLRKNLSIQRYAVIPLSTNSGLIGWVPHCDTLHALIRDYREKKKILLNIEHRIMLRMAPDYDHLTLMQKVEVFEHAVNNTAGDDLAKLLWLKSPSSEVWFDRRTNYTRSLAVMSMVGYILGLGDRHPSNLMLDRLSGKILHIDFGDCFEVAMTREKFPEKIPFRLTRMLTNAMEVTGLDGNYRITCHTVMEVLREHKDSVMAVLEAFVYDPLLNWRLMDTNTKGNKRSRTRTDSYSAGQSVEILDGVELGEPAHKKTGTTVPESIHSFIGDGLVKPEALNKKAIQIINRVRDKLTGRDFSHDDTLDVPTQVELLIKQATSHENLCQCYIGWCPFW

Take `Cc1nn(C)cc1-n1c(=O)n(C)c2cnc3ccc(-c4cncc(C(C)O)c4)cc3c21` (racemic) [Example 217, (rac)-1-(1,3-Dimethyl-1H-pyrazol-4-yl)-8-[5-(1-hydroxy-ethyl)-pyridin-3-yl]-3-methyl-1,3-dihydro-imidazo[4,5-c]quinolin-2-one]: the IC50 (commonly the concentration that inhibits the measured activity by half) on mTOR was 12 nM. In “Solubility at pH 6.8”, the solubility (in general, the dissolved amount per volume that the medium holds) was 414 µg/mL (≈ 999 µM). Turning to `COc1ccc(-c2ccc3ncc4c(c3c2)n(-c2ccnn2C)c(=O)n4C)cn1` [Example 2.2, 8-(6-Methoxy-pyridin-3-yl)-3-methyl-1-(2-methyl-2H-pyrazol-3-yl)-1,3-dihydro-imidazo[4,5-c]quinolin-2-one], on mTOR, the half-maximal inhibitory concentration (IC50) was found to be 347 nM. Further, in “Solubility at pH 6.8”, the solubility was found to be 4 µg/mL (≈ 10.4 µM). In the same order, the values of `Cc1nn(CC(=O)N(C)C)c(C)c1-n1c(=O)n(C)c2cnc3ccc(-c4ccc(-n5cccn5)cc4)cc3c21` [Example 51.4, 2-{3,5-Dimethyl-4-[3-methyl-2-oxo-8-(4-pyrazol-1-yl-phenyl)-2,3-dihydro-imidazo[4,5-c]quinolin-1-yl]pyrazol-1-yl}-N,N-dimethyl-acetamide] are 99 nM and 11 µg/mL (≈ 21.1 µM).

Turning to `Cc1ncc(-c2ccc3ncc4c(c3c2)n(-c2cn(C)nc2C)c(=O)n4C)cc1N(C)S(C)(=O)=O` [Example 75, N-{5-[1-(1,3-Dimethyl-1H-pyrazol-4-yl)-3-methyl-2-oxo-2,3-dihydro-1H-imidazo[4,5-c]quinolin-8-yl]-2-methyl-pyridin-3-yl}-N-methyl-methanesulfonamide], at mTOR, the IC50 is 260 nM. Further, the solubility in “Solubility at pH 6.8” amounted to 35 µg/mL (≈ 71.2 µM). In the same order, the values of `CCNc1cc(-c2ccc3ncc4c(c3c2)n(-c2c(C)nn(CCOC)c2C)c(=O)n4C)cnc1C` [Example 87.4, 8-(5-Ethylamino-6-methyl-pyridin-3-yl)-1-[1-(2-methoxy-ethyl)-3,5-dimethyl-1H-pyrazol-4-yl]-3-methyl-1,3-dihydro-imidazo[4,5-c]quinolin-2-one] are 77 nM and more than 486 µg/mL. The like results for `Cc1ncc(-c2ccc3ncc4c(c3c2)n(-c2cn(C)nc2C)c(=O)n4C)cc1N` [Example 88.2, 8-(5-Amino-6-methyl-pyridin-3-yl)-1-(1,3-dimethyl-1H-pyrazol-4-yl)-3-methyl-1,3-dihydro-imidazo[4,5-c]quinolin-2-one] were, in that order, 13 nM and 136 µg/mL (≈ 340 µM). Consider `CCNc1cncc(-c2ccc3ncc4c(c3c2)n(-c2cn(C)nc2C)c(=O)n4C)c1` [Example 122, 1-(1,3-Dimethyl-1H-pyrazol-4-yl)-8-(5-ethylamino-pyridin-3-yl)-3-methyl-1,3-dihydro-imidazo[4,5-c]quinolin-2-one], for which, on mTOR, the 50% inhibitory concentration (IC50) was 5 nM. Further, the solubility in “Solubility at pH 6.8” was found to be 5 µg/mL (≈ 12.1 µM). Turning to `CCOc1ccc(-c2ccc3ncc4c(c3c2)n(-c2cn(CCOC)nc2C)c(=O)n4C)cn1` [Example 131, 8-(6-Ethoxy-pyridin-3-yl)-1-[1-(2-methoxy-ethyl)-3-methyl-1H-pyrazol-4-yl]-3-methyl-1,3-dihydro-imidazo[4,5-c]quinolin-2-one], the 50% inhibitory concentration (IC50) at mTOR is 143 nM. The solubility in “Solubility at pH 6.8” worked out at 4 µg/mL (≈ 8.72 µM). The like results for `Cc1nn(C)cc1-n1c(=O)n(C)c2cnc3ccc(-c4cnc(Cl)c(N)c4)cc3c21` [Example 152.2, 8-(5-Amino-6-chloro-pyridin-3-yl)-1-(1,3-dimethyl-1H-pyrazol-4-yl)-3-methyl-1,3-dihydro-imidazo[4,5-c]quinolin-2-one] were, in that order, 5 nM and 4 µg/mL (≈ 9.53 µM). As for `CCNc1cc(-c2ccc3ncc4c(c3c2)n(-c2cn(C)nc2C)c(=O)n4C)cnc1COC` [Example 156, 1-(1,3-Dimethyl-1H-pyrazol-4-yl)-8-(5-ethylamino-6-methoxymethyl-pyridin-3-yl)-3-methyl-1,3-dihydro-imidazo[4,5-c]quinolin-2-one], the IC50 at mTOR was found to be 5 nM. Also, in “Solubility at pH 6.8”, the solubility was more than 458 µg/mL. On to `CNc1cc(-c2ccc3ncc4c(c3c2)n(-c2cn(C)nc2C)c(=O)n4C)cnc1CO` [Example 158.1, 1-(1,3-Dimethyl-1H-pyrazol-4-yl)-8-(6-hydroxymethyl-5-methylamino-pyridin-3-yl)-3-methyl-1,3-dihydro-imidazo[4,5-c]quinolin-2-one], for which the IC50 on mTOR was found to be 4 nM. Moreover, the solubility in “Solubility at pH 6.8” is more than 429 µg/mL. As for `CNc1cc(-c2ccc3ncc4c(c3c2)n(-c2cn(C)nc2Cl)c(=O)n4C)cnc1COC` [Example 160.1, 1-(3-Chloro-1-methyl-1H-pyrazol-4-yl)-8-(6-methoxymethyl-5-methylamino-pyridin-3-yl)-3-methyl-1,3-dihydro-imidazo[4,5-c]quinolin-2-one], the IC50 on mTOR was less than 3 nM. Besides, the solubility in the series “Solubility at pH 6.8” was found to be 32 µg/mL (≈ 69 µM). In the same order, the values of `CNc1ncc(-c2ccc3ncc4c(c3c2)n(-c2cn(C(C)C)nc2C)c(=O)n4C)cc1CO` [Example 171, 8-(5-Hydroxymethyl-6-methylamino-pyridin-3-yl)-1-(1-isopropyl-3-methyl-1H-pyrazol-4-yl)-3-methyl-1,3-dihydro-imidazo[4,5-c]quinolin-2-one] are less than 3 nM and 5 µg/mL (≈ 10.9 µM).

Consider `Cc1nn(C)cc1-n1c(=O)n(C)c2cnc3ccc(-c4cncc(NC(C)C)c4)cc3c21` [Example 177.1, 1-(1,3-Dimethyl-1H-pyrazol-4-yl)-8-(5-isopropylamino-pyridin-3-yl)-3-methyl-1,3-dihydro-imidazo[4,5-c]quinolin-2-one], for which, on mTOR, the IC50 is 3 nM. In addition, the solubility in the series “Solubility at pH 6.8” amounted to 169 µg/mL (≈ 395 µM).

With `CCn1cc(-n2c(=O)n(C)c3cnc4ccc(-c5cncc(NC)c5)cc4c32)c(C)n1` [Example 180.1, 1-(1-Ethyl-3-methyl-1H-pyrazol-4-yl)-3-methyl-8-(5-methylamino-pyridin-3-yl)-1,3-dihydro-imidazo[4,5-c]quinolin-2-one], the 50% inhibitory concentration (IC50) on mTOR is 5 nM. In the series “Solubility at pH 6.8”, the solubility stood at 11 µg/mL (≈ 26.6 µM). On to `Cc1nn(C)cc1-n1c(=O)n(C)c2cnc3ccc(-c4cncc(OC(CF)CF)c4)cc3c21` [Example 182, 1-(1,3-Dimethyl-1H-pyrazol-4-yl)-8-[5-(2-fluoro-1-fluoromethyl-ethoxy)-pyridin-3-yl]-3-methyl-1,3-dihydro-imidazo[4,5-c]quinolin-2-one], for which, on mTOR, the concentration for half-maximal inhibition (IC50) was 6 nM. Moreover, in the series “Solubility at pH 6.8”, the solubility came out at 56 µg/mL (≈ 121 µM). On to `COc1cc(-c2ccc3ncc4c(c3c2)n(-c2cn(C(C)C)nc2C)c(=O)n4C)cnc1CO` [Example 194.1, 8-(6-Hydroxymethyl-5-methoxy-pyridin-3-yl)-1-(1-isopropyl-3-methyl-1H-pyrazol-4-yl)-3-methyl-1,3-dihydro-imidazo[4,5-c]quinolin-2-one], for which the IC50 on mTOR is 101 nM. For the same molecule, in “Solubility at pH 6.8”, the solubility was found to be 129 µg/mL (≈ 281 µM). In the same order, the values of `COc1cc(-c2ccc3ncc4c(c3c2)n(-c2cn(C)nc2Cl)c(=O)n4C)cnc1CO` [Example 194.2, 1-(3-chloro-1-methyl-1H-pyrazol-4-yl)-8-(6-hydroxymethyl-5-methoxy-pyridin-3-yl)-3-methyl-1,3-dihydro-imidazo[4,5-c]quinolin-2-one] are 6 nM and 94 µg/mL (≈ 208 µM). Take `CCOCc1ncc(-c2ccc3ncc4c(c3c2)n(-c2cn(C)nc2Cl)c(=O)n4C)cc1OC` [Example 196.1, 1-(3-Chloro-1-methyl-1H-pyrazol-4-yl)-8-(6-ethoxymethyl-5-methoxy-pyridin-3-yl)-3-methyl-1,3-dihydro-imidazo[4,5-c]quinolin-2-one]: the IC50 on mTOR was determined as 45 nM. Further, the solubility in “Solubility at pH 6.8” is 44 µg/mL (≈ 91.9 µM). On to `COc1cc(-c2ccc3ncc4c(c3c2)n(-c2cn(CCO)nc2C)c(=O)n4C)cnc1C` [Example 211.1, 1-[1-(2-Hydroxy-ethyl)-3-methyl-1H-pyrazol-4-yl]-8-(5-methoxy-6-methyl-pyridin-3-yl)-3-methyl-1,3-dihydro-imidazo[4,5-c]quinolin-2-one], for which the concentration for half-maximal inhibition (IC50) on mTOR stood at 13 nM. The solubility in “Solubility at pH 6.8” came to 3 µg/mL (≈ 6.75 µM). With `Cc1nn(C)cc1-n1c(=O)n(C)c2cnc3ccc(-c4cnc(N)c(C(=O)NC(C)C)c4)cc3c21` [Example 225, 2-Amino-5-[1-(1,3-dimethyl-1H-pyrazol-4-yl)-3-methyl-2-oxo-2,3-dihydro-1H-imidazo[4,5-c]quinolin-8-yl]-N-isopropyl-nicotinamide], at mTOR, the IC50 worked out at 26 nM. The same measure, in the same setting: with `COCCNC(=O)c1cc(-c2ccc3ncc4c(c3c2)n(-c2cn(C)nc2C)c(=O)n4C)cnc1N` [Example 226, 2-Amino-5-[1-(1,3-dimethyl-1H-pyrazol-4-yl)-3-methyl-2-oxo-2,3-dihydro-1H-imidazo[4,5-c]quinolin-8-yl]-N-(2-methoxy-ethyl)-nicotinamide] the figure was 169 nM. As for `COc1ncc(-c2ccc3ncc4c(c3c2)n(-c2cn(C(C)C)nc2C)c(=O)n4C)c(OC)n1` [Example 234.3, 8-(2,4-Dimethoxy-pyrimidin-5-yl)-1-(1-isopropyl-3-methyl-1H-pyrazol-4-yl)-3-methyl-1,3-dihydro-imidazo[4,5-c]quinolin-2-one], on mTOR, the concentration for half-maximal inhibition (IC50) worked out at 17 nM. Besides, in the series “Solubility at pH 6.8”, the solubility is 13 µg/mL (≈ 28.3 µM). In the case of `Cc1nn(C)cc1-n1c(=O)n(C)c2cnc3ccc(-c4cnc(CO)c(Cl)c4)cc3c21` [Example 238, 8-(5-Chloro-6-hydroxymethyl-pyridin-3-yl)-1-(1,3-dimethyl-1H-pyrazol-4-yl)-3-methyl-1,3-dihydro-imidazo[4,5-c]quinolin-2-one], the IC50 at mTOR was 174 nM. In addition, the solubility in “Solubility at pH 6.8” came out at 8 µg/mL (≈ 18.4 µM). Regarding `CCOC(C)(C)c1cncc(-c2ccc3ncc4c(c3c2)n(-c2cn(C)nc2C)c(=O)n4C)c1` [Example 240, 1-(1,3-Dimethyl-1H-pyrazol-4-yl)-8-[5-(1-ethoxy-1-methyl-ethyl)-pyridin-3-yl]-3-methyl-1,3-dihydro-imidazo[4,5-c]quinolin-2-one], on mTOR, the IC50 was determined as 79 nM. In the series “Solubility at pH 6.8”, the solubility was 4 µg/mL (≈ 8.76 µM).
